{
  "source": "patent US12486218B2",
  "about": "“Compounds advantageous in the treatment of central nervous system diseases and disorders” (AurimMed Pharma, Inc., priority 2008, dated 2025)",
  "key": {"[1]": {"tested_on": "mice", "test": "Maximal Electroshock Seizure (MES) test, mice i.p.", "type": "in vivo", "conditions": "for MES, fraction of animals: mice i.p.; for activity in the MES test: mice"}, "[2]": {"tested_on": "rat dopaminergic N27 cells", "test": "N27 protection assay against oxidative stress (H2O2 or MPP+; MTT and LDH)", "type": "cell-based", "conditions": "drug 24 hours before 200 μM H2O2 or 640 μM MPP+", "source_text": "FIGS. 20A-25D data are shown illustrating neuroprotective and neuroregenerative effects observed in rat dopaminergic N27 cells. Rat dopaminergic N27 cells are commonly used in in vitro and in vivo model systems for studying Parkinson's disease. Parkinson's disease is a neurodegenerative disorder of the central nervous system that affects more than 6 million people worldwide. The motor symptoms of Parkinson's disease result from the death of dopamine generating cells in the substantia nigra, a region of the midbrain.\nThe N27 rat dopaminergic neuron cell line was harvested from E12 rat mesencephalic tissue and was transfected with SV40 to immortalize the cell line. The N27 cell line, when injected into the striata of 6-hydroxydopamine-lesioned rats (an animal model of PD) caused a time-dependent improvement in neurological deficits. This immortalized cell line has been carefully characterized in studies of dopamine biosynthesis, neurotoxicity and used as a dopaminergic neuron model studies.\nThe N27 in vitro Parkinson's disease model included a test of cell viability and cell toxicity in response to exposure to oxidative stress (e.g., either 200 μM H2O2 or 640 μM MPP+).\nCell viability was tested using the MTT assay. The MTT assay is a colorimetric analysis based on the activities of mitochondrial NAD(P)H-dependent cellular oxidoreductase enzymes. These enzymes are capable of reducing the tetrazolium dye, MTT [3-(4,5-dimethylthiazol-2-yl)-2,5-diphenyltetrazolium] bromide, to an insoluble formazan (purple). […] More viable cells equal more accumulation of the insoluble formazan dye.\nCell toxicity was tested using the […] (LDH) assay. Cells that are stressed secrete LDH. In general, the more cells are stressed, the LDH they secrete into their media. The LDH assay is a reliable colorimetric assay to measure quantitatively the […] (LDH) that is released into the cell culture media from damaged cells as a biomarker for cytotoxicity and cytolysis.\nFIGS. 20A-25D present data from two types of assays: protection and recovery assays. In the protection assays, the drug candidate was applied to the cells at various concentrations for 24 hours, followed by the exposure to oxidative stress (either 200 μM H2O2 or 640 μM MPP+) for measuring neuroprotective effect. H2O2 provides a broad measure of oxidative stress, while MPP+ gives a more specific oxidative stress to dopaminergic neurons.\nThe protection assay results are shown in panels A-C of FIGS. 20-25 In the recovery assays, the cells were first damaged by exposure to H2O2 and then various concentrations of the drug were applied to the cells. The results for the recovery assays are shown the D panels of FIGS. 20-25."}, "[3]": {"tested_on": "mice", "test": "Minimal motor impairment (MID50), mice i.p.", "conditions": "mice i.p.; 100 mg/kg @ 0.5 hr", "procedure": "The animal testing was performed according to methods known in the relevant art."}, "[4]": {"tested_on": "rats", "test": "Pilocarpine-induced Status Epilepticus in Rats (prevention; intervention @ 30 min)", "procedure": "The animal testing was performed using the protocols developed in the Anticonvulsant Screening Program (ASP) at the National Institute of Neurological Disorders and Stroke (NINDS), National Institutes of Health (NIH)."}, "[5]": {"tested_on": "SMN2 promoter", "test": "SMN2 promoter β-lactamase reporter assay in NSC34 motor neuron-like cells", "type": "cell-based", "conditions": "for Promoter (SMN2 promoter test, summary YES/NO): Table 13 summary; for SMN2 promoter activity: treatment for 19 hours at a concentration of 1 μM", "experimental": "FIG. 30 illustrates a screen for SMN2 expression of a number of compounds described herein.\nSMN2 promoter activity was measured using NSC34 motor neuron-like cells stably transfected with a β-lactamase (BLA) reporter gene under the control of a 3.4-kilobase fragment of the SMN2 promoter. D156844 was used as a positive control for this assay."}, "[6]": {"tested_on": "mice", "test": "6 Hz (minimal clonic seizure) model, mice i.p.", "type": "in vivo", "conditions": "mice; at 100 mg/kg"}, "[7]": {"tested_on": "mice", "test": "Subcutaneous Metrazol Seizure threshold (s.c. MET) test, mice i.p.", "type": "in vivo", "conditions": "for s.c. MET, fraction of animals: mice i.p.; for activity in the s.c. MET test: mice, at 300 mg/kg"}, "[8]": {"tested_on": "inclusion of exon 7 in SMN2 mRNAs", "test": "Exon 7 inclusion BLA reporter assay in NSC34 cell line", "type": "cell-based", "source_text": "To measure changes in the inclusion of exon 7 in SMN2 mRNAs, another NSC34 cell line was used that stably transfected with a reporter construct which expresses BLA when exon 7 is included in the SMN2 minigene mRNAs. 5-(N-ethyl-N-isopropyl)-amiloride (EIPA) was used as a positive control for this assay. Data for tis assay is illustrated in FIG. 30."}, "[9]": {"conditions": "Rattus norvegicus, read-out: Prevention, Protection"}, "[10]": {"conditions": "Rattus norvegicus, 0.5 h, read-out: Intervention @ 30 min, Protection"}},
  "note": "Where two headings read alike, the source gives them in different places.",
  "data": [
    {"smiles": "CC(CC(=O)N(C)C)c1ccc2c(c1)OCO2", "note": "(stereo not drawn) [Compound N, N,N-dimethyl-3-(3,4-methylenedioxy-phenyl)butyramide]", "values": [
      {"measurement": "MES, fraction of animals", "setting": "[1]; 100 mg/kg @ 0.5 hr", "value": "1/3 @0.5 hr,"},
      {"measurement": "activity in the MES test", "setting": "[1]; at 300 mg/kg", "value": "activity"},
      {"measurement": "neuroprotective effect against H2O2 and MPP+ oxidative stresses (MTT and LDH assays)", "setting": "[2]", "value": "potent dose-dependent neuroprotective effects"}
    ]},
    {"smiles": "CNC(=O)CC(C)(C)c1ccc(Cl)cc1", "note": "[Compound B, 3-(4-Chlorophenyl)-3,N-dimethylbutyramide]", "values": [
      {"measurement": "neuroprotective effect against H2O2 and MPP+ oxidative stresses (MTT and LDH assays)", "setting": "[2]", "value": "potent dose-dependent neuroprotective effects"},
      {"measurement": "MID50, fraction of animals", "setting": "[3]", "value": "2/8 @0.5 hr"},
      {"measurement": "responders at 300 mg/kg", "setting": "[4]; [9]", "value": 43, "unit": "%"}
    ]},
    {"smiles": "CC(CC(N)=O)c1ccc(S(C)(=O)=O)cc1", "note": "(racemic) [AV]", "values": [
      {"measurement": "neuroprotective effect against H2O2 and MPP+ oxidative stresses (MTT and LDH assays)", "setting": "[2]", "value": "statistically significant, dose-dependent neuroprotection"},
      {"measurement": "Prevention, Protection", "setting": "[4]; rats, pilocarpine-induced status epilepticus, dose 600 mg/kg", "value": 25, "unit": "%"}
    ]},
    {"smiles": "CNC(=O)CC(C)c1ccc2c(c1)OCO2", "note": "(stereo not drawn) [Compound M, N-methyl-3-(3,4-methylenedioxy-phenyl)butyramide]", "values": [
      {"measurement": "neuroprotective effect against H2O2 and MPP+ oxidative stresses (MTT and LDH assays)", "setting": "[2]", "value": "potent dose-dependent neuroprotective effects"},
      {"measurement": "Promoter (SMN2 promoter test, summary YES/NO)", "setting": "[5]", "value": "YES"},
      {"measurement": "SMN2 promoter activity", "setting": "[5]", "value": "increased SMN2 promoter activity"},
      {"measurement": "responders at 600 mg/kg", "setting": "[4]; [9]", "value": 100, "unit": "%"}
    ]},
    {"smiles": "COCCNC(=O)CC(C)c1ccc(OC(F)(F)F)cc1", "note": "(stereo not drawn) [BL, N-(2-Methoxy-ethyl)-3-(4-trifluoromethoxy-phenyl)-butyramide]", "values": [
      {"measurement": "MES, fraction of animals", "setting": "[1]; 100 mg/kg @ 0.25 hr", "value": "2/3 @"},
      {"measurement": "activity in the MES test", "setting": "[1]; at 100 mg/kg", "value": "activity"},
      {"measurement": "activity in the 6 Hz (minimal clonic seizure) model", "setting": "[6]", "value": "activity"},
      {"measurement": "neuroprotective effect against H2O2 and MPP+ oxidative stresses (MTT and LDH assays)", "setting": "[2]", "value": "statistically significant, dose-dependent neuroprotection"}
    ]},
    {"smiles": "CC(O)(CC(N)=O)c1cccc(C(F)(F)F)c1", "note": "(racemic) [CE]", "values": [
      {"measurement": "MES, fraction of animals", "setting": "[1]; 30 mg/kg @ 0.50 hr", "value": "1/1 @"},
      {"measurement": "s.c. MET, fraction of animals", "setting": "[7]; 30 mg/kg @ 0.5 hr", "value": "1/5 @ 0.5 hr,"},
      {"measurement": "s.c. MET, fraction of animals", "setting": "[7]; 100 mg/kg @ 0.5 hr", "value": "1/1 @ 0.5 hr,"},
      {"measurement": "MID50, fraction of animals", "setting": "[3]", "value": "3/8 @ 0.5 hr,"}
    ]},
    {"smiles": "Cc1cc(C(CC(N)=O)C2CC2)ccc1F", "note": "(stereo not drawn) [AO, 3-Cyclopropyl-3-(4-fluoro-3-methylphenyl)-propionamide]", "values": [
      {"measurement": "MES, fraction of animals", "setting": "[1]; 100 mg/kg @ 0.5 hr", "value": "1/3 @"},
      {"measurement": "activity in the MES test", "setting": "[1]; at 100 mg/kg", "value": "activity"},
      {"measurement": "activity in the s.c. MET test", "setting": "[7]", "value": "activity"},
      {"measurement": "neuroprotective effect against H2O2 and MPP+ oxidative stresses (MTT and LDH assays)", "setting": "[2]", "value": "statistically significant, dose-dependent neuroprotection"},
      {"measurement": "responders at 97 mg/kg", "setting": "[4]; [10]", "value": 50, "unit": "%"},
      {"measurement": "responders at 65 mg/kg", "setting": "[4]; [9]", "value": 86, "unit": "%"}
    ]},
    {"smiles": "CC(CC(N)=O)c1ccc2c(c1)OCO2", "note": "(stereo not drawn) [L, 3-(3,4-methylenedioxy-phenyl)butyramide]", "values": [
      {"measurement": "activity in the MES test", "setting": "[1]; at 300 mg/kg", "value": "activity"},
      {"measurement": "activity in the s.c. MET test", "setting": "[7]", "value": "activity"},
      {"measurement": "SMN2 promoter activity", "setting": "[5]", "value": "increased SMN2 promoter activity"},
      {"measurement": "effect on the inclusion of exon 7 in SMN2 transcripts", "setting": "[8]; NSC34 exon 7 BLA reporter cells", "value": "positive effect on the inclusion of exon 7"},
      {"measurement": "Exon 7 inclusion (summary YES/NO)", "setting": "[8]; Table 13 summary", "value": "YES"},
      {"measurement": "responders at 600 mg/kg", "setting": "[4]; [10]", "value": 29, "unit": "%"},
      {"measurement": "responders at 450 mg/kg", "setting": "[4]; [9]", "value": 100, "unit": "%"}
    ]},
    {"smiles": "CC1CCN(C(=O)CC(C)c2ccc(OC(F)(F)F)cc2)CC1", "note": "(stereo not drawn) [BK, 1-(4-Methyl-piperidin-1-yl)-3-(4-trifluoromethoxy-phenyl)-butan-1-one]", "values": [
      {"measurement": "MES, fraction of animals", "setting": "[1]; 100 mg/kg @ 0.5 hr", "value": "1/3"},
      {"measurement": "MES, fraction of animals", "setting": "[1]; 100 mg/kg @ 2.0 hr", "value": "2/3"},
      {"measurement": "activity in the 6 Hz (minimal clonic seizure) model", "setting": "[6]", "value": "activity"},
      {"measurement": "neuroprotective effect against H2O2 and MPP+ oxidative stresses (MTT and LDH assays)", "setting": "[2]", "value": "statistically significant, dose-dependent neuroprotection"},
      {"measurement": "Promoter (SMN2 promoter test, summary YES/NO)", "setting": "[5]", "value": "YES"},
      {"measurement": "SMN2 promoter activity", "setting": "[5]", "value": "increased SMN2 promoter activity"}
    ]}
  ]
}
